US20250074911A1, “MACROCYCLIC BTK INHIBITORS” (Crossfire Oncology Holding B.V., priority 2021, published 2025)

How the values were obtained:
[1] = target: wt-BTK (Homo sapiens (Human), UniProt Q06187); experiment: Binding kinetics measurements (Surface Plasmon Resonance) on wt-BTK; conditions: for Tau (h) wt-BTK (Act): target residence time, SPR
Experimental: (§1) Binding kinetics measurements on wt-BTK, BTK […], BTK […], BTK […] and BTK […] (Surface Plasmon Resonance) Streptavidin-coated chips (Cat. No. BR100531), disposables and maintenance kits for Biacore were purchased from Cytiva (Eindhoven, The Netherlands). […] Remaining streptavidin was blocked with biocytin. Immobilization was performed at 4° C. Subsequent assay steps were conducted at 22° C. After changing buffer to Biacore buffer with 1% (v/v) dimethylsulfoxide (DMSO), a pre-run was performed for a period of at least 30 min at a flow rate of 30 μl/min to obtain a stable surface. The kinetic constants of the compounds were determined with single cycle kinetics with five consecutive injections with an increasing compound concentration with ranges of 3.16-316 nM. […] To circumvent problems of mass transport limitation, a flow rate of 30 μl/min was used. A blank run with the same conditions was performed before the compound was injected. The SPR sensorgrams were analyzed with Biacore Evaluation Software by using a method of double referencing. First the reference channel was subtracted from the channel containing immobilized protein. Subsequently, the reference curve obtained with buffer injections was subtracted. […] Compounds that bound according to an induced fit model were fitted with a two-state reaction model. The kinetic constants (ka, […], KD) of duplicates were geometrically averaged. […] Target residence for an induced fit model was calculated as described (Tummino and Copeland, 2008).

[2] = target: BTK T474I (Homo sapiens (Human), UniProt Q06187, T474I); experiment: Binding kinetics measurements (Surface Plasmon Resonance) on BTK T474I; conditions: target residence time, SPR
Experimental: as §1

[3] = tested on: wt-REC-1 mantle cell lymphoma cells; experiment: Cell proliferation assay wt-REC-1 (ATPlite, 72 hours); assay type: cell-based; conditions: 72 h; read-out: IC50 wt-REC-1
Method in brief: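 Luminescent viability read over 72 h, start-of-incubation signal recorded separately to separate growth from cell death. Percentage growth referenced to compound-free 0.3% DMSO wells; IC50 from 4-parameter logistic fit.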

[4] = tested on: wt-TMD8 diffuse large B-cell lymphoma cells; experiment: Cell proliferation assay wt-TMD8 (ATPlite, 120 hours); assay type: cell-based; conditions: B-cell; wt-TMD8 cells, 120 hours, ATPlite; read-out: IC50 wt-TMD8
Method in brief: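 Readout is percentage growth from ATPlite 1Step luminescence after 5 days (120 h) compound treatment of wt-TMD8 lymphoma cells (1600/well, RPMI-1640 + 10% FBS). Time-zero signal separates growth inhibition from cell kill; 0.3% DMSO wells without compound define maximal growth.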

[5] = target: full-length wt-BTK enzyme (Homo sapiens (Human), UniProt Q06187); experiment: Biochemical kinase assay wt-BTK (IMAP)
Method in brief: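 Compound and enzyme (final 1.2 nM) were pre-incubated for 1 h at RT, after which the reaction was started with 4 μM ATP plus 50 nM fluorescein-MBP substrate peptide. After 2 h in the dark, the IMAP progressive binding reagent stopped the reaction, and phosphorylation was read by fluorescence polarization.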

[6] = target: full-length BTK C481S enzyme (Homo sapiens (Human), UniProt Q06187, C481S); experiment: Biochemical kinase assay BTK C481S (IMAP)
Method in brief: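 IC50 values come from IMAP fluorescence polarization after quenching with progressive binding solution. The reaction ran 2 h at room temperature in the dark with 1.2 nM full-length C481S enzyme, 7 μM ATP and 50 nM fluorescein-labelled MBP-derived peptide, following a 1 h dark pre-incubation of compound with enzyme.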

[7] = tested on: REC-1 T474I cell lines; experiment: Cell proliferation assay REC-1 BTK T474I knock-in cells (ATPlite, 72 hours); assay type: cell-based; conditions: Homo sapiens, Rec1; 72 hours; read-out: IC50 REC-1 T474I
Method in brief: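 REC-1 cells carrying CRISPR knock-in mutant BTK, single-cell cloned and sequence-confirmed, were exposed to compound for 72 h and read by ATPlite luminescence. Percentage growth was calculated against the signal at the start of incubation and against untreated 0.3% DMSO wells as maximum growth.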

Sequence of BTK T474I (Q06187 whole entry T474I): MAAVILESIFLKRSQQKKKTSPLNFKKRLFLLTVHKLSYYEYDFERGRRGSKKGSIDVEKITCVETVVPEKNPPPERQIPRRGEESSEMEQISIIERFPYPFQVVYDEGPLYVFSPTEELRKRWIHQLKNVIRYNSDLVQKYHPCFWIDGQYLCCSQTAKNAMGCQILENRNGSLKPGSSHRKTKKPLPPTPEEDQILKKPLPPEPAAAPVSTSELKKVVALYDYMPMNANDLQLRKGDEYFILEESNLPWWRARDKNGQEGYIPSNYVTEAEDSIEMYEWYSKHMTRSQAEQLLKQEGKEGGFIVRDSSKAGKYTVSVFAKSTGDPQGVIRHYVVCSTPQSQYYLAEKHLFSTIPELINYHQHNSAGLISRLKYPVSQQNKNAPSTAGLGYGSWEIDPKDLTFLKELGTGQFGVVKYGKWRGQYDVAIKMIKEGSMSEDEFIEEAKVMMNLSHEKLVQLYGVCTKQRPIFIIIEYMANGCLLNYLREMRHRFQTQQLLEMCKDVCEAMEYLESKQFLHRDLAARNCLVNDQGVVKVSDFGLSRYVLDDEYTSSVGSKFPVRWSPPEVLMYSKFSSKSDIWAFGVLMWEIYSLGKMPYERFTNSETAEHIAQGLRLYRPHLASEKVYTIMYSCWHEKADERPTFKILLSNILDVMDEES
Sequence of full-length BTK C481S enzyme (Q06187 whole entry C481S): as the sequence (Q06187 whole entry T474I) above, with I474T, C481S counted along it
Sequence of full-length wt-BTK enzyme (Q06187 whole entry): as the sequence (Q06187 whole entry T474I) above, with I474T counted along it
Sequence of wt-BTK (Q06187 whole entry): as the sequence (Q06187 whole entry T474I) above, with I474T counted along it

COc1cc(-c2nn3c4c(cnc(N)c24)/C=C/CCOCCC(=O)N[C@@H]2CCC[C@@H]3C2)ccc1C(=O)Nc1cc(C(F)(F)F)ccn1 [Example 195]
Kd ([1]; binding affinity by Surface Plasmon Resonance (SPR)): < 5 nM | Tau (h) wt-BTK (Act) [1]: 3.73 h | Tau (h) BTK T474I (Act) [2]: 0.73 h | IC50 [3]: < 100 nM | IC50 [4]: < 100 nM | IC50 [5]: < 5 nM | IC50 [6]: < 5 nM | IC50 [7]: < 100 nM

N#Cc1ccnc(NC(=O)c2ccc(-c3nn4c5c(cnc(N)c35)/C=C/CCN3CC[C@H]3C(=O)N[C@@H]3CC[C@@H]4C3)cc2)c1 [Example 186]
Tau (h) wt-BTK (Act) [1]: >24 h | Tau (h) BTK T474I (Act) [2]: 0.93 h | IC50 [3]: < 100 nM | IC50 [4]: < 100 nM | IC50 [5]: < 5 nM | IC50 [6]: < 5 nM | IC50 [7]: < 100 nM

Nc1ncc2n3c(nc(-c4ccc(C(=O)Nc5cc(C6CC6)ccn5)cc4)c13)[C@@H]1CC[C@H](C1)NC(=O)CCOCC/C=C/2 [Example 223]
Tau (h) wt-BTK (Act) [1]: 2.52 h | IC50 [3]: < 100 nM | IC50 [4]: < 100 nM | IC50 [5]: < 5 nM | IC50 [6]: < 5 nM | IC50 [7]: 100 to 500 nM

COc1cc(-c2nn3c4c(cnc(N)c24)/C=C/COCCC(=O)N[C@@H]2CCC[C@@H]3C2)ccc1C(=O)Nc1cc(C(F)(F)F)ccn1 [Example 188]
Tau (h) BTK T474I (Act) [2]: >24 h | IC50 [3]: < 100 nM | IC50 [4]: < 100 nM | IC50 [5]: < 5 nM | IC50 [6]: < 5 nM | IC50 [7]: < 100 nM

CC(=O)N1C[C@@H]2C[C@@H]1C(=O)NCCCCC/C=C/c1cnc(N)c3c(-c4ccc(C(=O)Nc5cc(C(F)(F)F)ccn5)cc4)nn2c13 [Example 226]
Tau (h) wt-BTK (Act) [1]: 2.76 h | IC50 [3]: 1000 to 10000 nM | IC50 [5]: < 5 nM | IC50 [6]: < 5 nM | IC50 [7]: 500 to 10000 nM

Nc1ncc2c3c1c(-c1ccc(C(=O)Nc4cc(C(F)(F)F)ccn4)cc1)nn3[C@@H]1CN[C@H](C1)C(=O)NCCCCC/C=C/2 [Example 225]
Tau (h) wt-BTK (Act) [1]: 3.59 h | Tau (h) BTK T474I (Act) [2]: 1.19 h | IC50 [3]: < 100 nM | IC50 [5]: < 5 nM | IC50 [6]: < 5 nM | IC50 [7]: 500 to 10000 nM

CC(=O)N1CC/C=C/c2cnc(N)c3c(-c4ccc(C(=O)Nc5cc(C(F)(F)F)ccn5)cc4)nn(c23)[C@@H]2CCC[C@H](C2)NC(=O)C[C@H]1C [Example 190]
IC50 [3]: 1000 to 10000 nM | IC50 [4]: < 100 nM | IC50 [5]: < 5 nM | IC50 [6]: < 5 nM | IC50 [7]: 500 to 10000 nM

Nc1ncc2c3c1c(-c1ccc(C(=O)Nc4cc(C(F)(F)F)ccn4)cc1)nn3[C@@H]1CCC[C@H](C1)NC(=O)CNCCC/C=C/2 [Example 31]
IC50 [3]: < 100 nM | IC50 [4]: < 100 nM | IC50 [5]: < 5 nM | IC50 [6]: < 5 nM | IC50 [7]: < 100 nM

Nc1ncc2c3c1c(-c1ccc(C(=O)Nc4cc(C(F)(F)F)ccn4)cc1)nn3[C@@H]1CCC[C@H](C1)NC(=O)CCCC[C@@H](O)/C=C/2 [Example 12]
IC50 [3]: < 100 nM | IC50 [4]: < 100 nM | IC50 [5]: < 5 nM | IC50 [6]: < 5 nM | IC50 [7]: 500 to 10000 nM

Nc1ncc2c3c1c(-c1ccc(C(=O)Nc4ccccn4)cc1)nn3[C@@H]1CCC[C@H](C1)NC(=O)CCCCCC/C=C/2 [Example 29]
IC50 [3]: < 100 nM | IC50 [4]: < 100 nM | IC50 [5]: < 5 nM | IC50 [6]: < 5 nM | IC50 [7]: 100 to 500 nM

CN1CC/C=C/c2cnc(N)c3c(-c4ccc(C(=O)Nc5cc(C(F)(F)F)ccn5)cc4)nn(c23)[C@@H]2CCC[C@H](C2)NC(=O)CC1 [Example 38]
IC50 [3]: < 100 nM | IC50 [4]: < 100 nM | IC50 [5]: < 5 nM | IC50 [6]: < 5 nM | IC50 [7]: < 100 nM

COc1ccc(F)cc1C(=O)NCc1ccc(-c2nc3n4c(cnc(N)c24)/C=C/CCN(C(C)=O)CC(=O)N[C@@H]2CC[C@@H]3C2)cc1 [Example 221]
IC50 [3]: 1000 to 10000 nM | IC50 [4]: < 100 nM | IC50 [5]: < 5 nM | IC50 [6]: < 5 nM | IC50 [7]: 500 to 10000 nM

COc1cc(-c2nn3c4c(cnc(N)c24)/C=C/CCCCCC(=O)N[C@@H]2CCC[C@@H]3C2)ccc1C(=O)Nc1cc(C(F)(F)F)ccn1 [Example 197]
IC50 [3]: < 100 nM | IC50 [4]: < 100 nM | IC50 [5]: < 5 nM | IC50 [6]: < 5 nM | IC50 [7]: 100 to 500 nM

CN1C/C=C/c2cnc(N)c3c(-c4ccc(C(=O)Nc5cc(C(F)(F)F)ccn5)cc4)nn(c23)[C@@H]2CCCN(C2)C(=O)CCCC1 [Example 82]
IC50 [3]: 100 to 1000 nM | IC50 [4]: < 100 nM | IC50 [5]: < 5 nM | IC50 [6]: < 5 nM | IC50 [7]: 500 to 10000 nM

C[C@@H]1CNC(=O)[C@@H]2CCC[C@H](C2)n2nc(-c3ccc(C(=O)Nc4cc(C(F)(F)F)ccn4)cc3)c3c(N)ncc(c32)/C=C/CO1 [Example 149]
IC50 [3]: 100 to 1000 nM | IC50 [4]: < 100 nM | IC50 [5]: < 5 nM | IC50 [6]: < 5 nM | IC50 [7]: < 100 nM

C[C@@H]1CCn2nc(-c3ccc(Oc4ccccc4)cc3)c3c(N)ncc(c32)/C=C/CCCCCC(=O)N1 [Example 173]
IC50 [3]: < 100 nM | IC50 [4]: < 100 nM | IC50 [5]: < 5 nM | IC50 [6]: < 5 nM | IC50 [7]: 500 to 10000 nM

COc1ccc(F)cc1C(=O)NCc1ccc(-c2nc3n4c(cnc(N)c24)/C=C/CCNCC(=O)N[C@@H]2CC[C@@H]3C2)cc1 [Example 219]
IC50 [3]: 100 to 1000 nM | IC50 [4]: < 100 nM | IC50 [5]: < 5 nM | IC50 [6]: < 5 nM | IC50 [7]: 500 to 10000 nM

C[C@@H]1CNC(=O)[C@@H]2CCC[C@H](C2)n2nc(-c3ccc(C(=O)Nc4cc(C(F)(F)F)ccn4)cc3)c3c(N)ncc(c32)/C=C/CN1C [Example 154]
IC50 [3]: 1000 to 10000 nM | IC50 [4]: < 100 nM | IC50 [5]: < 5 nM | IC50 [6]: < 5 nM | IC50 [7]: 500 to 10000 nM

Nc1ncc2c3c1c(-c1ccc(C(=O)Nc4cc(C(F)(F)F)ccn4)cc1)nn3[C@@H]1CCC[C@H](C1)C(=O)NCCCCCCCC2 [Example 119]
IC50 [3]: < 100 nM | IC50 [4]: < 100 nM | IC50 [5]: < 5 nM | IC50 [6]: < 5 nM | IC50 [7]: 500 to 10000 nM

CC(=O)N1CC/C=C/c2cnc(N)c3c(-c4ccc(C(=O)Nc5cc(C(F)(F)F)ccn5)cc4)nc(n23)[C@@H]2CC[C@H](C2)NC(=O)C1 [Example 220]
IC50 [3]: 1000 to 10000 nM | IC50 [4]: < 100 nM | IC50 [5]: < 5 nM | IC50 [6]: < 5 nM | IC50 [7]: 500 to 10000 nM
